# Reference: article PMC10740956, “A Multitarget Approach against Neuroinflammation: Alkyl Substituted Coumarins as Inhibitors of Enzymes Involved in Neurodegeneration” (Antioxidants, 2023)
# Several values for one entry are separate records, joined by “and”; a condition that tells them apart may be missing. Equal entries are not always repeated. Entries after “also recorded” stand apart in the source; their conditions may differ. Where two headings read alike, the source gives them in different places.
# Key:
# [1] = tested on: Interleukin-6 secretion from rat astrocytes pre-stimulated with LPS; assay: IL-6 secretion by ELISA in LPS pre-stimulated astrocytes; assay type: cell-based; details: 24 h, compared to LPS alone
# Description: (§1) Cells were seeded (8 × 10^3/well) and were left to adhere for 24 h in 96-well plates (Falcon®, Corning Incorporated, NY, USA). The medium was removed, incubating the cell monolayer in the presence of increasing concentrations of DEP, AAZ, and test compounds (0–150 µM) for 24–72 h. In a second set of experiments, cells were pre-incubated in the presence of 0.1 µg/mL LPS (lipopolysaccharide from E. coli, purchased from Merck, Darmstadt, Germany) for 20 h and further exposed to DEP, AAZ, and test compounds in the same experimental conditions.
# The amounts (pg/mL) of interleukin-6 (IL-6) were analyzed in cell supernatants using an ELISA kit (Enzo Life Sciences Inc., Lausen, Switzerland) following the manufacturer’s instructions. Absorbance was read at 450 nm and cytokine concentration was determined. Data obtained were normalized on MTT optical densities.
# hCA IX = hCA IX (Homo sapiens, UniProt Q16790); assay: stopped flow CO2 hydrase assay, hCA IX; assay type: biochemical; details: mean of 3 different assays
# hMAO-B = target: T1, hMAO-B (Homo sapiens, UniProt P27338); assay: hMAO-B inhibition, recombinant enzyme, kynuramine substrate, fluorescence; assay type: biochemical; details: for IC50: mean ± SD of triplicate determinations; for SI (selectivity index for hMAO-B over hMAO-A): IC50 hMAO-A/IC50 hMAO-B
# T1 construct: purchased Sigma-Aldrich
# T1 sequence (P27338 1-520): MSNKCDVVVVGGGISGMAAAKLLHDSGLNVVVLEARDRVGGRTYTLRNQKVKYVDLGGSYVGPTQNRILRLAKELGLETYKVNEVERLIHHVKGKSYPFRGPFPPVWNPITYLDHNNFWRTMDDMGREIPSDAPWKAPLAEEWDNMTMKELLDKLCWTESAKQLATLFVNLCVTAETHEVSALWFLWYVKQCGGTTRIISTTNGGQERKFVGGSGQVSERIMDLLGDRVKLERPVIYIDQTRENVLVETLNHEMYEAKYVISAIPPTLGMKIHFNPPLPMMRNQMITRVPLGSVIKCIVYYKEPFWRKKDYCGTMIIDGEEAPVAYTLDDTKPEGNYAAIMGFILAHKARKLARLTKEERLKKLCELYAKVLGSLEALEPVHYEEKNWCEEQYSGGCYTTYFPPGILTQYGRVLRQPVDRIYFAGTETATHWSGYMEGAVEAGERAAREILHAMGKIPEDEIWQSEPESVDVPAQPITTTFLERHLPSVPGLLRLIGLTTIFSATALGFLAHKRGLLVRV
# hCA II = hCA II (Homo sapiens, UniProt P00918); assay: stopped flow CO2 hydrase assay, hCA II; assay type: biochemical; details: mean of 3 different assays
# hCA I = hCA I (Homo sapiens, UniProt P00915); assay: stopped flow CO2 hydrase assay, hCA I; assay type: biochemical; details: mean of 3 different assays
# BuChE (equine serum) = target: T2, BuChE (equine serum) (Equus caballus, UniProt P81908); assay: biochemical; assay type: biochemical; details: for IC50: mean ± SD of triplicate determinations
# T2 construct: from tissue; host or cells: equine serum
# hCA VII = hCA VII (Homo sapiens, UniProt P43166); assay: stopped flow CO2 hydrase assay, hCA VII; assay type: biochemical; details: mean of 3 different assays
# AChE (electric eel) = target: T3, AChE (electric eel) (Electrophorus electricus, UniProt O42275); assay: biochemical; details: for inhibition at 100 µM: read-out: inhibition of AChE at 100 µM, 100 µM; for IC50: mean ± SD of triplicate determinations
# T3 construct: from tissue
# hMAO-A = target: T4, hMAO-A (Homo sapiens, UniProt P21397); assay: hMAO-A inhibition, recombinant enzyme, kynuramine substrate, fluorescence; assay type: biochemical; details: for IC50: mean ± SD of triplicate determinations
# T4 construct: purchased Sigma-Aldrich
# T4 sequence (P21397 1-527): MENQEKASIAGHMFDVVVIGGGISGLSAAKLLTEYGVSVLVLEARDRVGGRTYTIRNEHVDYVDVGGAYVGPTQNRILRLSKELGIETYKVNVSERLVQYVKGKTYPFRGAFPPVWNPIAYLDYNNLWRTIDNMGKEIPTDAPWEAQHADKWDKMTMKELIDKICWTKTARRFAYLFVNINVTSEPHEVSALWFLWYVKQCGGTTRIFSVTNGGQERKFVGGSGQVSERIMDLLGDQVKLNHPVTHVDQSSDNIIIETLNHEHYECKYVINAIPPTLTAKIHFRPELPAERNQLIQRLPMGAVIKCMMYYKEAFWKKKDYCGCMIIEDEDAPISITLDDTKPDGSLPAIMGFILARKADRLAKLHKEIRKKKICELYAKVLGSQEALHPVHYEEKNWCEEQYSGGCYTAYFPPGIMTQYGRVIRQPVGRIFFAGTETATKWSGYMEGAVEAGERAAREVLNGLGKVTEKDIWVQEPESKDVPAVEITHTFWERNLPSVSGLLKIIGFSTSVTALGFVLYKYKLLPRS
# [2] = tested on: H2O2 generation in rat astrocytes pre-stimulated with LPS; assay: Hydrogen peroxide measurement in supernatants of LPS pre-stimulated astrocytes; assay type: cell-based; details: 24 h
# Description: as §1
# At 24 h, cell supernatants were taken from the cultures used for the MTT assay. The quantitative determination of H2O2 released in supernatants was performed by means of a H2O2 colorimetric kit (cat. no. ADI-907-015, Enzo Life Sciences, Inc., Farmingdale, NY, USA). Then, 50 µL of supernatant/well was used and 100 µL of color reagent was added in each well. Next, wells were mixed and afterwards incubated for 30 min at r.t. The OD was measured following the manufacturer’s instructions.
# hCA XII = hCA XII (Homo sapiens, UniProt O43570); assay: stopped flow CO2 hydrase assay, hCA XII; assay type: biochemical
# [3] = tested on: CTX/TNA2 rat astrocytes pre-stimulated with LPS; assay: Cell metabolic activity assay (MTT), LPS pre-stimulated astrocytes; assay type: cell-based; details: pre-stimulated with 0.1 µg/mL LPS 20 h, then compounds 24 and 72 h
# CTX/TNA2 rat astrocytes = assay: Cell metabolic activity assay (MTT), non-inflammatory conditions; assay type: cell-based; details: 0-150 µM, 24-72 h
# T3 sequence (O42275 24-633): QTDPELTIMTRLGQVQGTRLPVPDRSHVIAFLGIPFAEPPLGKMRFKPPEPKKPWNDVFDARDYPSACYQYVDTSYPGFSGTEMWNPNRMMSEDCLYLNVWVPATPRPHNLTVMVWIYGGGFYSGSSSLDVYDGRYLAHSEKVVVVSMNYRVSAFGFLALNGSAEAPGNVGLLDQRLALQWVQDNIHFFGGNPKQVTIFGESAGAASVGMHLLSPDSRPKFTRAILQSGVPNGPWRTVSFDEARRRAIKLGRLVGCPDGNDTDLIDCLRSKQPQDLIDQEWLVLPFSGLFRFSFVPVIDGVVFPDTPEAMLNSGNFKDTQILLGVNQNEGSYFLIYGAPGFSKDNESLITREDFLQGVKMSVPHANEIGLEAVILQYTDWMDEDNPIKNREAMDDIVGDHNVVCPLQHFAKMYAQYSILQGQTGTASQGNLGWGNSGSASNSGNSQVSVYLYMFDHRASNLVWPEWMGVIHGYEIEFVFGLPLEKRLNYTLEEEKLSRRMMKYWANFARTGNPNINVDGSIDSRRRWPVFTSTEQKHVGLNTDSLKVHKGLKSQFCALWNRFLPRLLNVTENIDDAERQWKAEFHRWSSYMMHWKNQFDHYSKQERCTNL
# Chain of hCA XII (O43570 25-354): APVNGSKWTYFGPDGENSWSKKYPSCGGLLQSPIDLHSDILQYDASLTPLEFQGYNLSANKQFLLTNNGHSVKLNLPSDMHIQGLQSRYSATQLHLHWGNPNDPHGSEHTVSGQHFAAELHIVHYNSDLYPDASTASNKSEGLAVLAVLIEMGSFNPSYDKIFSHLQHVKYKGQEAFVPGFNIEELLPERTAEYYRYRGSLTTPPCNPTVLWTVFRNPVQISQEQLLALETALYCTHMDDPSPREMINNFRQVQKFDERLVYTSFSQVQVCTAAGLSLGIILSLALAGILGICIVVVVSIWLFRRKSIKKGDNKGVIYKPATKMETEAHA
# T2 sequence (P81908 whole entry): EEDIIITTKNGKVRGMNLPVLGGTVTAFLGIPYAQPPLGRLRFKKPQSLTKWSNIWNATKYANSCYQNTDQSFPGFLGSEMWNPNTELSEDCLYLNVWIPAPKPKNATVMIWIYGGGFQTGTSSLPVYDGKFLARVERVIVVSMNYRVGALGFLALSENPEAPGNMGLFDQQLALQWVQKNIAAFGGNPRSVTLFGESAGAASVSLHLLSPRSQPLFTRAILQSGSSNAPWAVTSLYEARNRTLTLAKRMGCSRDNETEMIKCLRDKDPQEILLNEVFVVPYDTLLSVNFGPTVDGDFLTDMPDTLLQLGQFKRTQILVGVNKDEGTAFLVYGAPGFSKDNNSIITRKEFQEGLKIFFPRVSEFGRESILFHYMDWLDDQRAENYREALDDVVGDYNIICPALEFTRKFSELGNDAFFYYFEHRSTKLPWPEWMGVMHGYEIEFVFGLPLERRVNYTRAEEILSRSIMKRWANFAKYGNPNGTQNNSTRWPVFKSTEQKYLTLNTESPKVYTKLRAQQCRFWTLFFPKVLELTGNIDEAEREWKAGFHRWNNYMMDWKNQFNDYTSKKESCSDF
# Chain of hCA VII (P43166 whole entry): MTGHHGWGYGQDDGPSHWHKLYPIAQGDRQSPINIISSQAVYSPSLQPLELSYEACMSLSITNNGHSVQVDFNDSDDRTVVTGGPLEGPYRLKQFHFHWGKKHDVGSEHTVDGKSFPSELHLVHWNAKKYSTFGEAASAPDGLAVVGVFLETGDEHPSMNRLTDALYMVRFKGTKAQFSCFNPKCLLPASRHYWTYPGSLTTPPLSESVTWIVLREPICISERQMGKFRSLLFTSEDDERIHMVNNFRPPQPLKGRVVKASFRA
# Chain of hCA I (P00915 whole entry): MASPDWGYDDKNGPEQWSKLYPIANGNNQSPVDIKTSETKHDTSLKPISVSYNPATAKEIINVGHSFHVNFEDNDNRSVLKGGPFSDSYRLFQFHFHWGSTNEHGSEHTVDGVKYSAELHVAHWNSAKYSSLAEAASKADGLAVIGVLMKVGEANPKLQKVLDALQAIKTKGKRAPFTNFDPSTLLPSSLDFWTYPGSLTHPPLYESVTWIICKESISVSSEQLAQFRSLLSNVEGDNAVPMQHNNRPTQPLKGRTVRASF
Structure (SMILES),IL-6 secretion [1],Ki (hCA IX) [µM],IC50 (hMAO-B),Ki (hCA II) [µM],Ki (hCA I) [µM],IC50 (BuChE (equine serum)) [µM],Ki (hCA VII) [µM],IC50 (hMAO-A),SI (selectivity index for hMAO-B over hMAO-A) (hMAO-B),cell metabolic activity (MTT) versus LPS only control [3],Ki (hCA XII; mean of 3 different assays) [µM],"cell metabolic activity (MTT), biocompatibility (CTX/TNA2 rat astrocytes)",IC50 (AChE (electric eel)) [µM],further results
"C#CCN(C)C(C)Cc1ccccc1 (stereo not shown) [DEP, deprenyl, reference compound]",increases the amount of IL-6 at the highest concentration tested,–,–,–,–,–,–,–,–,–,–,–,–,–
"CCC#CCOc1ccc2ccc(=O)oc2c1 [Compound 7, 7-(Pent-2-yn-1-yloxy)-2H-chromen-2-one]",–,0.013,0.008 ± 0.00062 µM,> 10,> 10,59 ± 1,0.0635,11.2 ± 0.39 µM,–,–,–,–,–,inhibition at 100 µM (AChE (electric eel)): 50%; H2O2 generation ([2]; 0.01 µM): restoring it to the untreated control levels; also recorded: strong reduction in H2O2 release; Ki (hCA XII): 0.0068 µM
"C#CCCCCOc1ccc2ccc(=O)oc2c1 [Compound 9, 7-(Hex-5-yn-1-yloxy)-2H-chromen-2-one]",decreases the amount of the cytokine at 0.01 and 10 µM,0.0313,0.007 ± 0.00035 µM,> 10,> 10,51 ± 4,0.0771,0.65 ± 0.027 µM,92.8,able to counteract the LPS-induced increase in cell metabolic activity,0.0059,–,–,Ki (hMAO-B; Lineweaver-Burk plots): 0.0023 µM; hMAO-B inhibition mechanism (hMAO-B; Lineweaver-Burk plots): competitive inhibition mechanism; inhibition at 100 µM (AChE (electric eel)): 50%; Ki (hMAO-A; Lineweaver-Burk plots): 0.146 µM; hMAO-A inhibition mechanism (hMAO-A; Lineweaver-Burk plots): competitive inhibition mechanism; H2O2 generation ([2]; 10 µM): restoring it to the untreated control levels
"CC(=O)Nc1nnc(S(N)(=O)=O)s1 [AAZ, acetazolamide, reference compound]",the highest concentrations of AAZ are capable of decreasing IL-6 secretion in a significant manner,–,–,–,–,–,–,–,–,–,–,–,–,–
"C#CCCCOc1cc(=O)oc2ccccc12 [Compound 1, 4-(Pent-4-yn-1-yloxy)-2H-chromen-2-one]",–,0.0172,> 100 µM,> 10,6.26,33 ± 1,0.0598,> 10 µM and 51.2 µM,<0.51,–,0.0048,"good biocompatibility, with a cell metabolic activity significantly decreased only after 48 h and at the highest concentration tested (150 µM)",> 100,–
"CC#CCOc1ccc2ccc(=O)oc2c1 [Compound 6, 7-(But-2-yn-1-yloxy)-2H-chromen-2-one]",–,0.0093,0.25 ± 0.017 µM,> 10,> 10,> 100,0.0682,21.3 ± 0.77 µM,85.3,–,0.0068,cell metabolic activity significantly decreases at all the concentrations tested at 48 h,> 100,H2O2 generation ([2]; 150 µM): restoring it to the untreated control levels
"CC#CCOc1ccc2oc(=O)ccc2c1 [Compound 4, 6-(But-2-yn-1-yloxy)-2H-chromen-2-one]",–,0.0242,> 10 µM and 12.1 µM,> 10,> 10,> 100,0.0633,> 10 µM and 55.7 µM,4.6,–,0.0043,well tolerated up to 48 h and display a good biocompatibility at the longest exposure time (72 h),> 100,H2O2 generation ([2]; 10 µM): restoring it to the untreated control levels
"C#CCOc1ccc2oc(=O)ccc2c1 [Compound 3, 6-(Prop-2-ynyloxy)-2H-chromen-2-one]",–,–,> 10 µM and 65.4 µM,–,–,> 100,0.0617,> 10 µM and 40.2 µM,–,able to counteract the LPS-induced increase in cell metabolic activity,–,well tolerated up to 48 h and display a good biocompatibility at the longest exposure time (72 h),> 100,–
"C#CCCCCOc1cc(=O)oc2ccccc12 [Compound 2, 4-(Hex-5-yn-1-yloxy)-2H-chromen-2-one]",–,0.009,> 10 µM and 25.9 µM,> 10,> 10,21 ± 1,0.0469,> 10 µM and 10.8 µM,0.42,able to counteract the LPS-induced increase in cell metabolic activity,0.0048,"good biocompatibility, with a cell metabolic activity significantly decreased only after 48 h and at the highest concentration tested (150 µM)",> 100,"BuChE mode of inhibition (BuChE (equine serum); Cornish-Bowden plots): mixed inhibition mechanism; Kib BuChE (inhibitor binding the ES complex) (BuChE (equine serum); Cornish-Bowden plots): 25 ± 3 µM; Ki (BuChE (equine serum); Cornish-Bowden plots, read-out: Kia BuChE (inhibitor binding the free enzyme) (converted)): 13 µM"
"C#CCOc1ccc2ccc(=O)oc2c1 [Compound 5, 7-(Prop-2-ynyloxy)-2H-chromen-2-one]",had an effect on IL-6 release,–,5.79 ± 0.26 µM,> 10,> 10,> 100,0.0519,–,–,–,0.73,cell metabolic activity significantly decreases at all the concentrations tested at 48 h,> 100,H2O2 generation ([2]; 0.01 µM): restoring it to the untreated control levels
"C#CCCCOc1ccc2ccc(=O)oc2c1 [Compound 8, 7-(Pent-4-yn-1-yloxy)-2H-chromen-2-one]",–,0.0266,0.51 ± 0.0099 µM,> 10,> 10,> 100,0.0693,5.7 ± 0.21 µM,–,able to counteract the LPS-induced increase in cell metabolic activity,0.0065,–,> 100,–
